Reference: publication PMC8972196, “A Set of Experimentally Validated Decoys for the Human CC Chemokine Receptor 7 (CCR7) Obtained by Virtual Screening” (Frontiers in Pharmacology, 2022)
Where two headings read alike, the source gives them in different places.

Biological target: T1, human CCR7 (Homo sapiens, UniProt P32248)
T1 construct: expressed in transfected cells
T1 sequence (P32248 25-378): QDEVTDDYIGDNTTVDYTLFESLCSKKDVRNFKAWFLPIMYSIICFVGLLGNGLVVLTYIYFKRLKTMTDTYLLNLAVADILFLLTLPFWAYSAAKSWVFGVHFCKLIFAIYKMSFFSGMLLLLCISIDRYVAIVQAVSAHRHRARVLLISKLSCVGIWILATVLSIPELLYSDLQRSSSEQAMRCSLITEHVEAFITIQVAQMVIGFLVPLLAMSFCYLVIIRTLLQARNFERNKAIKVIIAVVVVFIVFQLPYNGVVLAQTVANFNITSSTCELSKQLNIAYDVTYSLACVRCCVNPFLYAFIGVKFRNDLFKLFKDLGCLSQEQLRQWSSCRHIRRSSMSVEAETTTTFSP
Assay: CCL19-induced calcium mobilization assay, U87.CD4 cells expressing CCR7
Assay type: cell-based
Settings: for IC50: read-out: IC50 [μM] block CCL19 induced calcium signaling
Procedure, shortened: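 U87.CD4 cells stably expressing human CCR7, CXCR2 or CCR5 were seeded at 20,000 cells/well and incubated overnight at 37°C and 5% CO2. Cells were then incubated for 45 min at room temperature in the dark before calcium responses were recorded. CCR7 responses were induced with CCL19 and CXCR2 responses with CXCL8.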

[1] = CCL19 induced calcium signaling
[2] = classification as decoy or active on CCR7
[3] = CCL19-induced calcium signaling
[4] = classification of tested compounds as decoy or active

IC50 [1]	Decoy – 0 Active – 1 [2]	IC50 [3]	Decoy – 0 Active – 1 [4]	Structure (SMILES)
		> 50 µM	0	COC[C@@H](NC1=NS(=O)(=O)c2ccccc21)c1ccc(C)o1 [C134, COC[C@@H](NC1=NS(=O)(=O)c2ccccc21)c1ccc(C)o1]
		> 50 µM	0	CC[C@@H](NC1=NS(=O)(=O)c2ccccc21)C(=O)NOC [C156, CC[C@@H](NC1=NS(=O)(=O)c2ccccc21)C(=O)NOC]
		> 50 µM	0	O=C(N[C@@H](c1nccs1)C1CC1)c1cc(N2CCOCC2)ccn1 [C147, O=C(N[C@@H](c1nccs1)C1CC1)c1cc(N2CCOCC2)cc[nH+]1]
		> 50 µM	0	CN(C)C(=O)c1cccc(CN2CCC[C@@H]2C[C@H](O)c2cnn(C)c2)c1 [C110, CN(C)C(=O)c1cccc(C[N@@H+]2CCC[C@@H]2C[C@H](O)c2cnn(C)c2)c1]
> 50 µM	0			COc1ccc2c(c1)CCCN2C(=O)C1CC(=O)N(c2ccc3c(c2)OCCO3)C1 (stereo not drawn) [C218, COc1ccc2c(c1)CCCN2C(=O)C1CC(=O)N(c2ccc3c(c2)OCCO3)C1]
		> 50 µM	0	CN(C)C(=O)c1cccc(NC(=O)NCCC2=CCCCC2)c1 [C127, CN(C)C(=O)c1cccc(NC(=O)NCCC2=CCCCC2)c1]
> 50 µM	0			CC[C@@H](NC(=O)c1cc(-c2cccc(OC)c2)n[nH]1)c1nc(C)c(C)s1 [C159, CC[C@@H](NC(=O)c1cc(-c2cccc(OC)c2)n[nH]1)c1nc(C)c(C)s1]
		> 50 µM	0	Cc1cc(NCCc2nccs2)nc(-c2cccc([N+](=O)[O-])c2)n1 [C097, Cc1cc(NCCc2nccs2)nc(-c2cccc([N+](=O)[O-])c2)n1]
		> 50 µM	0	C[C@@H]1CCN(Cc2ccccc2)C[C@H]1Nc1ccc([N+](=O)[O-])c(C(N)=O)c1 [C117, C[C@@H]1CC[N@H+](Cc2ccccc2)C[C@H]1Nc1ccc([N+](=O)[O-])c(C(N)=O)c1]
		> 10 µM	0	Cc1ccc(C(NC(=O)Nc2ccc(C(N)=O)c(Cl)c2)C(C)(C)C)o1 (stereo not drawn) [C056, Cc1ccc(C(NC(=O)Nc2ccc(C(N)=O)c(Cl)c2)C(C)(C)C)o1]
		> 10 µM	0	CN(C)C(=O)c1ccc(Cl)c(NCC(=O)N(C)Cc2ccco2)c1 [C061, CN(C)C(=O)c1ccc(Cl)c(NCC(=O)N(C)Cc2ccco2)c1]
		> 50 µM	0	C[C@@H](CNC(=O)N[C@H]1CCO[C@@H](C2CC2)C1)c1ccsc1 [C109, C[C@@H](CNC(=O)N[C@H]1CCO[C@@H](C2CC2)C1)c1ccsc1]
		> 30 µM	0	Cc1sc(NC(=S)NC(=O)CCc2ccccc2)c(C(N)=O)c1C [C029, Cc1sc(NC(=S)NC(=O)CCc2ccccc2)c(C(N)=O)c1C]
		> 10 µM	0	CC1CCCCN1C(=O)CNc1cc(C(=O)N(C)C)ccc1Cl (stereo not drawn) [C074, CC1CCCCN1C(=O)CNc1cc(C(=O)N(C)C)ccc1Cl]
> 50 µM	0			CN(C)C(=O)c1ccc(CN2CCCC2c2cccc(Cl)c2)[nH]1 (stereo not drawn) [C287, CN(C)C(=O)c1ccc(CN2CCCC2c2cccc(Cl)c2)[nH]1]
		> 50 µM	0	CCOC(=O)c1sc2ncnc(NC[C@H]3CCCO3)c2c1C [C103, CCOC(=O)c1sc2ncnc(NC[C@H]3CCCO3)c2c1C]
		> 50 µM	0	CN(C)C(=O)c1ccc(CN2CCCC[C@H]2CCn2cccn2)o1 [C105, CN(C)C(=O)c1ccc(C[N@H+]2CCCC[C@H]2CCn2cccn2)o1]
		> 50 µM	0	CCOC(=O)[C@H](NCC(=O)Nc1cccc(C(=O)N(C)C)c1)C(C)C [C125, CCOC(=O)[C@H]([NH2+]CC(=O)Nc1cccc(C(=O)N(C)C)c1)C(C)C]

Second part, the molecule before the results:

Structure (SMILES)	IC50 [1]	Decoy – 0 Active – 1 [2]	IC50 [3]	Decoy – 0 Active – 1 [4]
O=c1oc2ccccc2n1CCCN1CCCC1c1ccc(O)cc1 (stereo not drawn) [C189, O=c1oc2ccccc2n1CCC[NH+]1CCCC1c1ccc(O)cc1]	> 50 µM	0		
O=C(O)CN1C(=O)NC2(CCCc3ccccc32)C1=O (stereo not drawn) [C199, O=C([O-])CN1C(=O)NC2(CCCc3ccccc32)C1=O]	> 50 µM	0		
CN(C)C(=O)Cn1cccc(NC(=O)CCC(C)(C)c2ccccc2)c1=O [C128, CN(C)C(=O)Cn1cccc(NC(=O)CCC(C)(C)c2ccccc2)c1=O]			> 50 µM	0
CN(C)CC(C)(C)CNC(=O)C(=O)Nc1cccc(C(=O)N(C)C)c1 [C070, CN(C)C(=O)c1cccc(NC(=O)C(=O)NCC(C)(C)C[NH+](C)C)c1]			> 10 µM	0
Cc1ccc(S(=O)(=O)N(CCC(=O)NC(C)CO)c2ccccc2)cc1 (stereo not drawn) [C250, Cc1ccc(cc1)S(=O)(=O)N(CCC(=O)NC(C)CO)c2ccccc2]	> 50 µM	0		
CC1CC(C)CN(C(=O)c2ccccc2NS(=O)(=O)c2ccc3[nH]c(=O)[nH]c3c2)C1 (stereo not drawn) [C257, CC1CC(CN(C1)C(=O)c2ccccc2NS(=O)(=O)c3ccc4c(c3)[nH]c(=O)[nH]4)C]	> 50 µM	0		
O=C(NCc1cccnc1)c1ccccc1NS(=O)(=O)c1ccc2c(c1)OCCO2 [C239, c1ccc(c(c1)C(=O)NCc2cccnc2)NS(=O)(=O)c3ccc4c(c3)OCCO4]	> 50 µM	0		
CC(C)c1ccc(S(=O)(=O)N2CCN(C)CC2c2ccccc2)cc1 (stereo not drawn) [C237, CC(C)c1ccc(cc1)S(=O)(=O)N2CC[NH+](CC2c3ccccc3)C]	> 50 µM	0		
O=C([C@@H]1C[C@@H]1c1ccco1)N1CCC[C@H]1Cc1ccc(F)cc1 [C154, O=C([C@@H]1C[C@@H]1c1ccco1)N1CCC[C@H]1Cc1ccc(F)cc1]			> 50 µM	0
N=C(Nc1ccccc1)C(N)=Nc1ccccc1 [C068, NC(=[NH+]c1ccccc1)C(=[NH2+])Nc1ccccc1]			> 10 µM	0
COc1ccc(N2CCN(c3c(NCc4cccc(Cl)c4)c(=O)c3=O)CC2)cc1 [C002, COc1ccc(N2CCN(c3c(NCc4cccc(Cl)c4)c(=O)c3=O)CC2)cc1]			> 50 µM	0
CCn1cccc(NC(=O)N2CC(Cc3ccccc3Br)C2)c1=O [C079, CCn1cccc(NC(=O)N2CC(Cc3ccccc3Br)C2)c1=O]			> 50 µM	0
Cc1ccc(S(=O)(=O)C(CNS(=O)(=O)c2ccc(F)cc2)c2cccnc2)cc1 (stereo not drawn) [C262, Cc1ccc(cc1)S(=O)(=O)C(CNS(=O)(=O)c2ccc(cc2)F)c3cccnc3]	> 50 µM	0		
CC(C)C(CO)NC(=O)NC(c1cccc(F)c1F)C(F)(F)F (stereo not drawn) [C191, CC(C)C(CO)NC(=O)NC(c1cccc(F)c1F)C(F)(F)F]	> 50 µM	0		
CN1CC[C@H](NC(=O)CN[C@@H](c2ccccc2)C(F)(F)F)C1=O [C107, CN1CC[C@H](NC(=O)CN[C@@H](c2ccccc2)C(F)(F)F)C1=O]			> 50 µM	0
Cc1cccc(N[C@H]2CS(=O)(=O)C[C@H]2OC(=O)c2ccccc2)c1 [C121, Cc1cccc(N[C@H]2CS(=O)(=O)C[C@H]2OC(=O)c2ccccc2)c1]			> 50 µM	0
O=C(NCc1ccccc1N1CCOCC1)c1nc2ccccc2c(=O)[nH]1 [C201, O=C(NCc1ccccc1N1CCOCC1)c1nc2ccccc2c(=O)[nH]1]	> 50 µM	0		
Cn1ncc(NC(=S)Nc2ccccc2C(F)(F)F)c1C(N)=O [C037, Cn1ncc(NC(=S)Nc2ccccc2C(F)(F)F)c1C(N)=O]			> 30 µM	0
CNC(=O)c1cccc(NC(=O)NCC(C)(C)c2cccs2)c1C [C126, CNC(=O)c1cccc(NC(=O)NCC(C)(C)c2cccs2)c1C]			> 50 µM	0
Cc1cccc(-c2cccc(C(=O)N3CC(O)CC3C(=O)O)c2)c1 (stereo not drawn) [C187, Cc1cccc(-c2cccc(C(=O)N3CC(O)CC3C(=O)[O-])c2)c1]	> 50 µM	0		
O=C(CNc1c(N2CCN(c3ccc(Cl)cc3)CC2)c(=O)c1=O)NCc1ccco1 [C008, O=C(CNc1c(N2CCN(c3ccc(Cl)cc3)CC2)c(=O)c1=O)NCc1ccco1]			> 50 µM	0
Cc1ccc(N2C(=O)C3C(C(=O)O)NC(c4ccccc4O)C3C2=O)cc1 (stereo not drawn) [C186, Cc1ccc(N2C(=O)C3C(C(=O)[O-])[NH2+]C(c4ccccc4O)C3C2=O)cc1]	> 50 µM	0		
Cc1cc(C)cc(Nc2c(-c3cccc(O)c3)nc3ncccn23)c1 [C182, Cc1cc(C)cc(Nc2c(-c3cccc(O)c3)nc3ncccn23)c1]	> 50 µM	0		
O=C(NCc1ccccc1F)N1CCC(c2ccc3c(c2)OCO3)C(O)C1 (stereo not drawn) [C180, O=C(NCc1ccccc1F)N1CCC(c2ccc3c(c2)OCO3)C(O)C1]	> 50 µM	0		
Cc1ccc(NC=C2C(=O)CC(c3ccco3)CC2=O)cc1 (stereo not drawn) [C071, Cc1ccc(NC=C2C(=O)CC(c3ccco3)CC2=O)cc1]			> 10 µM	0
COc1ccc(S(=O)(=O)N(CC(=O)Nc2cccc(OC)c2)c2ccccc2)cc1 [C245, COc1ccc(cc1)S(=O)(=O)N(CC(=O)Nc2cccc(c2)OC)c3ccccc3]	> 50 µM	0		
Cc1c(NC(=O)CN(C)Cc2ccc(F)cc2)cccc1C(=O)N(C)C [C099, Cc1c(NC(=O)C[N@H+](C)Cc2ccc(F)cc2)cccc1C(=O)N(C)C]			> 50 µM	0
